Laboratory results from PubChem BioAssay AID248 (DTP/NCI, 2004).
“And” between values parts separate entries of the source, which are not always exact repeats. Identical values can stand only once. Inconclusive results and toxic doses are left out. Cut-off read from the data, not from the text of the source: active = T/C of 150% or more; inactive = T/C below 125%.

Test system: L1210 leukemia ip in BDF1 mice, survival T/C
Test: NCI In Vivo Anticancer Drug Screen. Data for tumor model L1210 Leukemia (intraperitoneal) in B6D2F1 (BDF1) mice
Settings: endpoint: mean survival time, higher = longer survival
Method in brief: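 Tumor cells were implanted, animals were treated, and survival was followed. The result divides the treated measurement by the vehicle-control measurement.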

[1] = dose: 50.0 mg/kg/injection, schedule: Q01DX001 (ip), vehicle: saline
[2] = dose: 100.0 mg/kg/injection, schedule: Q01DX001 (ip), vehicle: saline
[3] = dose: 200.0 mg/kg/injection, schedule: Q01DX001 (ip), vehicle: saline
[4] = dose: 400.0 mg/kg/injection, schedule: Q01DX001 (ip), vehicle: saline
[5] = dose: 100.0 mg/kg/injection, schedule: Q04DX002 (ip), vehicle: saline with Tween-80
[6] = dose: 200.0 mg/kg/injection, schedule: Q04DX002 (ip), vehicle: saline with Tween-80
[7] = dose: 100.0 mg/kg/injection, schedule: Q01DX009 (ip), vehicle: Klucel (hydroxypropylcellulose) (HPC)
[8] = dose: 100.0 mg/kg/injection, schedule: Q04DX003 (ip), vehicle: Klucel (hydroxypropylcellulose) (HPC)
[9] = dose: 200.0 mg/kg/injection, schedule: Q01DX009 (ip), vehicle: Klucel (hydroxypropylcellulose) (HPC)
[10] = dose: 200.0 mg/kg/injection, schedule: Q04DX003 (ip), vehicle: Klucel (hydroxypropylcellulose) (HPC)
[11] = dose: 400.0 mg/kg/injection, schedule: Q01DX009 (ip), vehicle: Klucel (hydroxypropylcellulose) (HPC)
[12] = dose: 100.0 mg/kg/injection, schedule: Q04DX002 (ip), vehicle: Klucel (hydroxypropylcellulose) (HPC)
[13] = dose: 200.0 mg/kg/injection, schedule: Q04DX002 (ip), vehicle: Klucel (hydroxypropylcellulose) (HPC)
[14] = dose: 400.0 mg/kg/injection, schedule: Q04DX002 (ip), vehicle: Klucel (hydroxypropylcellulose) (HPC)
[15] = dose: 100.0 mg/kg/injection, schedule: Q01DX009 (ip), vehicle: saline
[16] = dose: 200.0 mg/kg/injection, schedule: Q01DX009 (ip), vehicle: saline
[17] = dose: 100.0 mg/kg/injection, schedule: Q04DX003 (ip), vehicle: saline with Tween-80
[18] = dose: 200.0 mg/kg/injection, schedule: Q04DX003 (ip), vehicle: saline with Tween-80
[19] = dose: 400.0 mg/kg/injection, schedule: Q04DX003 (ip), vehicle: saline with Tween-80
[20] = dose: 12.5 mg/kg/injection, schedule: Q01DX009 (ip), vehicle: saline with Tween-80
[21] = dose: 25.0 mg/kg/injection, schedule: Q01DX009 (ip), vehicle: saline with Tween-80
[22] = dose: 50.0 mg/kg/injection, schedule: Q01DX009 (ip), vehicle: saline with Tween-80
[23] = dose: 50.0 mg/kg/injection, schedule: Q04DX003 (ip), vehicle: saline with Tween-80
[24] = dose: 50.0 mg/kg/injection, schedule: Q01DX009 (ip), vehicle: saline
[25] = dose: 100.0 mg/kg/injection, schedule: Q04DX003 (ip), vehicle: saline
[26] = dose: 200.0 mg/kg/injection, schedule: Q04DX003 (ip), vehicle: saline

Measured: T/C

CC(=O)OCC1OC(N2C(=O)/C(=C/c3c(Cl)cccc3Cl)SC2=S)C(OC(C)=O)C(OC(C)=O)C1OC(C)=O (configuration not stated)
inactive: dose: 25.0 mg/kg/injection, schedule: Q01DX005 (ip), vehicle: other 103 % of control | dose: 50.0 mg/kg/injection, schedule: Q01DX005 (ip), vehicle: other 101 % of control | dose: 100.0 mg/kg/injection, schedule: Q01DX005 (ip), vehicle: other 104 % of control | dose: 200.0 mg/kg/injection, schedule: Q01DX005 (ip), vehicle: other 93 % of control

CCOC(=O)N1C(C(=O)c2ccccc2)N(Cc2ccccc2)C(c2ccccc2)N1C(=O)OCC (configuration not stated)
inactive: [1] 105 % of control | [2] 97 % of control | [3] 105 % of control | [4] 100 % of control

Cc1cc(C)n(C(=O)Nc2ccccc2)n1
inactive: [5] 105 % of control | [6] 100 % of control

CCCCCCC(=O)/C=C/C=C/c1ccccc1
inactive: [7] 97 % of control | [8] 98 % of control | [9] 91 % of control | [10] 98 % of control | [11] 100 % of control | dose: 400.0 mg/kg/injection, schedule: Q04DX003 (ip), vehicle: Klucel (hydroxypropylcellulose) (HPC) 94 % of control

Cc1ccc(C)c(Cn2cnc3c(=S)nc[nH]c32)c1
inactive: [12] 94 % of control | [13] 94 % of control | [14] 88 % of control

CCCOC(=O)c1cncn1C(C)c1ccccc1 (configuration not stated)
inactive: dose: 25.0 mg/kg/injection, schedule: Q01DX001 (ip), vehicle: saline 98 % of control | [1] 96 % of control | [2] 94 % of control

CCCC1C2C(=O)N(c3ccccc3)C(=O)C2ON1c1ccccc1 (configuration not stated)
inactive: [1] 104 % of control | [2] 98 % of control | [3] 101 % of control | [4] 106 % of control

CCCOC(=O)c1ccc(NCC(C)(C)[N+](=O)[O-])cc1
inactive: [15] 95 % of control | [16] 117 % of control | dose: 400.0 mg/kg/injection, schedule: Q01DX009 (ip), vehicle: saline 91 % of control

COC1OCC(O)C(O)C1OS(C)(=O)=O (configuration not stated)
inactive: [2] 110 % of control | [3] 101 % of control | [4] 104 % of control

O=c1[nH]c2c(Cl)cccc2c2ccccc12
inactive: dose: 100.0 mg/kg/injection, schedule: Q01DX001 (ip), vehicle: carboxymethylcellulose (CMC) 100 % of control | dose: 200.0 mg/kg/injection, schedule: Q01DX001 (ip), vehicle: carboxymethylcellulose (CMC) 107 % of control | dose: 400.0 mg/kg/injection, schedule: Q01DX001 (ip), vehicle: carboxymethylcellulose (CMC) 102 % of control

CCCCC(=O)Nc1cccc(OC(=O)NC)c1
inactive: [17] 92 % of control | [18] 95 % of control | [19] 87 % of control

CC1=C2C(=CC(C)(C)[C@@H]2O)C(=O)[C@](C)(O)C12CC2
inactive: dose: 75.0 micrograms/kg/injection, schedule: Q01DX Z (ip), vehicle: saline 98 % of control | dose: 150.0 micrograms/kg/injection, schedule: Q01DX Z (ip), vehicle: saline 104 % of control | dose: 300.0 micrograms/kg/injection, schedule: Q01DX Z (ip), vehicle: saline 106 % of control | dose: 600.0 micrograms/kg/injection, schedule: Q01DX Z (ip), vehicle: saline 106 % of control

COC1C(COS(=O)(=O)c2ccc(C)cc2)OC2OC(C)(C)OC21 (configuration not stated)
inactive: dose: 100.0 mg/kg/injection, schedule: Q04DX003 (ip), vehicle: other 92 % of control | dose: 200.0 mg/kg/injection, schedule: Q04DX003 (ip), vehicle: other 97 % of control | dose: 400.0 mg/kg/injection, schedule: Q04DX003 (ip), vehicle: other 101 % of control

COc1ccc(OC(=O)Nc2cc(Cl)ccc2C)cc1
inactive: [7] 94 % of control | [9] 91 % of control | [11] 94 % of control

O=[N+]([O-])c1ccc(/C=C/c2ccc(OCc3ccccc3)cc2)cc1Cl
inactive: [12] 96 % of control | [13] 96 % of control | [14] 96 % of control

c1cc2c(c(NC3=NCCCO3)c1)CCCC2
inactive: [20] 95 % of control | [21] 106 % of control | [22] 106 % of control | [23] 101 % of control

CNCCC(=O)c1ccccc1
inactive: [8] 99 % of control | [10] 99 % of control

NC(N)=NCCCCCC(=O)Oc1ccc([N+](=O)[O-])cc1
inactive: [24] 105 % of control | [15] 99 % of control and 100 % of control | [25] 92 % of control | [16] 100 % of control and 101 % of control | [26] 92 % of control

CC1C(=O)Nc2ccccc2N1C(=O)CN1CCCC1 (configuration not stated)
inactive: [24] 98 % of control | [15] 101 % of control | [25] 96 % of control | [16] 106 % of control | [26] 96 % of control | dose: 400.0 mg/kg/injection, schedule: Q04DX003 (ip), vehicle: saline 94 % of control

CC(=O)N(C)c1ccc(NC(=O)Nc2cccc(F)c2)cc1
inactive: [20] 104 % of control | [21] 105 % of control | [22] 96 % of control

CC[PH+]1c2ccccc2-c2ccccc21.CC[PH+]1c2ccccc2-c2ccccc21.CC[PH+]1c2ccccc2-c2ccccc21.[Br][Ni][Br]
inactive: dose: 12.5 mg/kg/injection, schedule: Q04DX003 (ip), vehicle: saline with Tween-80 98 % of control | dose: 25.0 mg/kg/injection, schedule: Q04DX003 (ip), vehicle: saline with Tween-80 98 % of control | [23] 102 % of control

NC(=O)NC(=O)NC(N)=O
inactive: [12] 94 % of control | [13] 102 % of control | [14] 102 % of control

O=C(Nc1ccccc1[N+](=O)[O-])OCCOc1ccccc1
inactive: dose: 100.0 mg/kg/injection, schedule: Q01DX001 (ip), vehicle: saline with Tween-80 98 % of control | dose: 100.0 mg/kg/injection, schedule: Q01DX009 (ip), vehicle: saline with Tween-80 103 % of control and 90 % of control | [5] 93 % of control and 95 % of control | [17] 97 % of control | dose: 200.0 mg/kg/injection, schedule: Q01DX001 (ip), vehicle: saline with Tween-80 91 % of control | dose: 200.0 mg/kg/injection, schedule: Q01DX009 (ip), vehicle: saline with Tween-80 100 % of control and 92 % of control | [6] 98 % of control and 100 % of control | [18] 103 % of control | dose: 400.0 mg/kg/injection, schedule: Q01DX001 (ip), vehicle: saline with Tween-80 93 % of control | dose: 400.0 mg/kg/injection, schedule: Q01DX009 (ip), vehicle: saline with Tween-80 93 % of control and 90 % of control | dose: 400.0 mg/kg/injection, schedule: Q04DX002 (ip), vehicle: saline with Tween-80 104 % of control and 92 % of control | [19] 105 % of control

CNC(=O)OCCO
inactive: [2] 100 % of control | [3] 101 % of control | [4] 97 % of control
